{
  "source": "PubChem BioAssay (NCI)",
  "test_in_all_cases": "inhibition of tumour cell growth, NCI panel, 48 h",
  "key": {"[1]": {"test_system": "ACHN renal"}, "[2]": {"test_system": "CAKI-1 renal"}, "[3]": {"test_system": "COLO 205 colon"}, "[4]": {"test_system": "EKVX NSCLC"}, "[5]": {"test_system": "HCT-15 colon"}, "[6]": {"test_system": "HOP-62 NSCLC"}, "[7]": {"test_system": "HS 578T breast"}, "[8]": {"test_system": "KM12 colon"}, "[9]": {"test_system": "MDA-MB-231 breast"}, "[10]": {"test_system": "MDA-N"}, "[11]": {"test_system": "NCI-H23 lung"}, "[12]": {"test_system": "NCI/ADR-RES ovarian"}, "[13]": {"test_system": "OVCAR-3 ovarian"}, "[14]": {"test_system": "OVCAR-4 ovarian"}, "[15]": {"test_system": "RXF 393 renal"}, "[16]": {"test_system": "SF-539 CNS"}, "[17]": {"test_system": "SNB-19 CNS"}, "[18]": {"test_system": "SW-620 colon"}, "[19]": {"test_system": "T-47D breast"}, "[20]": {"test_system": "TK-10 renal"}},
  "note": "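1) Cells in 96-well plates. 2) Compound, 48 h, 5 concentrations. 3) Linear interpolation between surrounding doses. 4) Unreached endpoint = highest concentration. TGI is the concentration that stops growth completely.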",
  "data": [
    {"smiles": "Br/C(=N\\Nc1nn[nH]n1)c1ccncc1", "values": [
      {"measurement": "TGI", "setting": "[1]", "result": "> 100", "unit": "µM"},
      {"measurement": "TGI", "setting": "[2]", "result": "> 100", "unit": "µM"},
      {"measurement": "TGI", "setting": "[3]", "result": "> 100", "unit": "µM"},
      {"measurement": "TGI", "setting": "[4]", "result": "> 100", "unit": "µM"},
      {"measurement": "TGI", "setting": "[5]", "result": "> 100", "unit": "µM"},
      {"measurement": "TGI", "setting": "[6]", "result": "> 100", "unit": "µM"},
      {"measurement": "TGI", "setting": "[7]", "result": "> 100", "unit": "µM"},
      {"measurement": "TGI", "setting": "[8]", "result": "> 100", "unit": "µM"},
      {"measurement": "TGI", "setting": "[9]", "result": "> 100", "unit": "µM"},
      {"measurement": "TGI", "setting": "[10]", "result": "> 100", "unit": "µM"},
      {"measurement": "TGI", "setting": "[11]", "result": "> 100", "unit": "µM"},
      {"measurement": "TGI", "setting": "[12]", "result": "> 100", "unit": "µM"},
      {"measurement": "TGI", "setting": "[13]", "result": "> 100", "unit": "µM"},
      {"measurement": "TGI", "setting": "[14]", "result": "> 100", "unit": "µM"},
      {"measurement": "TGI", "setting": "[15]", "result": "> 100", "unit": "µM"},
      {"measurement": "TGI", "setting": "[16]", "result": "> 100", "unit": "µM"},
      {"measurement": "TGI", "setting": "[17]", "result": "> 100", "unit": "µM"},
      {"measurement": "TGI", "setting": "[18]", "result": "> 100", "unit": "µM"},
      {"measurement": "TGI", "setting": "[19]", "result": "> 100", "unit": "µM"},
      {"measurement": "TGI", "setting": "[20]", "result": "> 100", "unit": "µM"}
    ]},
    {"smiles": "Cn1c2c3ccc(Cl)cc3nc-2c(Cl)c2ccccc21", "values": [
      {"measurement": "TGI", "setting": "[1]", "result": 32, "unit": "µM"},
      {"measurement": "TGI", "setting": "[2]", "result": 32.1, "unit": "µM"},
      {"measurement": "TGI", "setting": "[3]", "result": 40.1, "unit": "µM"},
      {"measurement": "TGI", "setting": "[4]", "result": 90.2, "unit": "µM"},
      {"measurement": "TGI", "setting": "[5]", "result": 47.1, "unit": "µM"},
      {"measurement": "TGI", "setting": "[6]", "result": 45.3, "unit": "µM"},
      {"measurement": "TGI", "setting": "[7]", "result": "> 100", "unit": "µM"},
      {"measurement": "TGI", "setting": "[8]", "result": 53.9, "unit": "µM"},
      {"measurement": "TGI", "setting": "[9]", "result": 97.8, "unit": "µM"},
      {"measurement": "TGI", "setting": "[10]", "result": 46.2, "unit": "µM"},
      {"measurement": "TGI", "setting": "[11]", "result": 36.1, "unit": "µM"},
      {"measurement": "TGI", "setting": "[12]", "result": 69.2, "unit": "µM"},
      {"measurement": "TGI", "setting": "[13]", "result": 29.7, "unit": "µM"},
      {"measurement": "TGI", "setting": "[14]", "result": 35.5, "unit": "µM"},
      {"measurement": "TGI", "setting": "[15]", "result": 36.9, "unit": "µM"},
      {"measurement": "TGI", "setting": "[16]", "result": 49.2, "unit": "µM"},
      {"measurement": "TGI", "setting": "[17]", "result": "> 100", "unit": "µM"},
      {"measurement": "TGI", "setting": "[18]", "result": 63.1, "unit": "µM"},
      {"measurement": "TGI", "setting": "[19]", "result": "> 100", "unit": "µM"},
      {"measurement": "TGI", "setting": "[20]", "result": 32.5, "unit": "µM"}
    ]},
    {"smiles": "Nc1ncnc2c1ncn2[C@H]1CC[C@@H](NO)C1", "values": [
      {"measurement": "TGI", "setting": "[1]", "result": "> 100", "unit": "µM"},
      {"measurement": "TGI", "setting": "[2]", "result": "> 100", "unit": "µM"},
      {"measurement": "TGI", "setting": "[3]", "result": "> 100", "unit": "µM"},
      {"measurement": "TGI", "setting": "[4]", "result": "> 100", "unit": "µM"},
      {"measurement": "TGI", "setting": "[5]", "result": "> 100", "unit": "µM"},
      {"measurement": "TGI", "setting": "[6]", "result": "> 100", "unit": "µM"},
      {"measurement": "TGI", "setting": "[7]", "result": "> 100", "unit": "µM"},
      {"measurement": "TGI", "setting": "[8]", "result": "> 100", "unit": "µM"},
      {"measurement": "TGI", "setting": "[9]", "result": "> 100", "unit": "µM"},
      {"measurement": "TGI", "setting": "[10]", "result": "> 100", "unit": "µM"},
      {"measurement": "TGI", "setting": "[11]", "result": "> 100", "unit": "µM"},
      {"measurement": "TGI", "setting": "[12]", "result": "> 100", "unit": "µM"},
      {"measurement": "TGI", "setting": "[13]", "result": "> 100", "unit": "µM"},
      {"measurement": "TGI", "setting": "[14]", "result": "> 100", "unit": "µM"},
      {"measurement": "TGI", "setting": "[15]", "result": "> 100", "unit": "µM"},
      {"measurement": "TGI", "setting": "[16]", "result": "> 100", "unit": "µM"},
      {"measurement": "TGI", "setting": "[17]", "result": "> 100", "unit": "µM"},
      {"measurement": "TGI", "setting": "[18]", "result": "> 100", "unit": "µM"},
      {"measurement": "TGI", "setting": "[19]", "result": "> 100", "unit": "µM"},
      {"measurement": "TGI", "setting": "[20]", "result": "> 100", "unit": "µM"}
    ]},
    {"smiles": "CCOC(=O)C(NCc1cccc(C(F)(F)F)c1)(NC(=O)CC)C(F)(F)F", "note": "(stereo not given)", "values": [
      {"measurement": "TGI", "setting": "[1]", "result": "> 100", "unit": "µM"},
      {"measurement": "TGI", "setting": "[2]", "result": "> 100", "unit": "µM"},
      {"measurement": "TGI", "setting": "[3]", "result": "> 100", "unit": "µM"},
      {"measurement": "TGI", "setting": "[4]", "result": "> 100", "unit": "µM"},
      {"measurement": "TGI", "setting": "[5]", "result": "> 100", "unit": "µM"},
      {"measurement": "TGI", "setting": "[6]", "result": "> 100", "unit": "µM"},
      {"measurement": "TGI", "setting": "[7]", "result": "> 100", "unit": "µM"},
      {"measurement": "TGI", "setting": "[8]", "result": "> 100", "unit": "µM"},
      {"measurement": "TGI", "setting": "[9]", "result": "> 100", "unit": "µM"},
      {"measurement": "TGI", "setting": "[10]", "result": "> 100", "unit": "µM"},
      {"measurement": "TGI", "setting": "[11]", "result": "> 100", "unit": "µM"},
      {"measurement": "TGI", "setting": "[12]", "result": "> 100", "unit": "µM"},
      {"measurement": "TGI", "setting": "[13]", "result": "> 100", "unit": "µM"},
      {"measurement": "TGI", "setting": "[14]", "result": "> 100", "unit": "µM"},
      {"measurement": "TGI", "setting": "[15]", "result": "> 100", "unit": "µM"},
      {"measurement": "TGI", "setting": "[16]", "result": "> 100", "unit": "µM"},
      {"measurement": "TGI", "setting": "[17]", "result": "> 100", "unit": "µM"},
      {"measurement": "TGI", "setting": "[18]", "result": "> 100", "unit": "µM"},
      {"measurement": "TGI", "setting": "[19]", "result": "> 100", "unit": "µM"},
      {"measurement": "TGI", "setting": "[20]", "result": "> 100", "unit": "µM"}
    ]},
    {"smiles": "O=c1c2cc([N+](=O)[O-])ccc2n2n1CCCC2", "values": [
      {"measurement": "TGI", "setting": "[1]", "result": "> 100", "unit": "µM"},
      {"measurement": "TGI", "setting": "[2]", "result": "> 100", "unit": "µM"},
      {"measurement": "TGI", "setting": "[3]", "result": "> 100", "unit": "µM"},
      {"measurement": "TGI", "setting": "[4]", "result": "> 100", "unit": "µM"},
      {"measurement": "TGI", "setting": "[5]", "result": "> 100", "unit": "µM"},
      {"measurement": "TGI", "setting": "[6]", "result": "> 100", "unit": "µM"},
      {"measurement": "TGI", "setting": "[7]", "result": "> 100", "unit": "µM"},
      {"measurement": "TGI", "setting": "[8]", "result": "> 100", "unit": "µM"},
      {"measurement": "TGI", "setting": "[9]", "result": "> 100", "unit": "µM"},
      {"measurement": "TGI", "setting": "[10]", "result": "> 100", "unit": "µM"},
      {"measurement": "TGI", "setting": "[11]", "result": "> 100", "unit": "µM"},
      {"measurement": "TGI", "setting": "[12]", "result": "> 100", "unit": "µM"},
      {"measurement": "TGI", "setting": "[13]", "result": "> 100", "unit": "µM"},
      {"measurement": "TGI", "setting": "[14]", "result": "> 100", "unit": "µM"},
      {"measurement": "TGI", "setting": "[15]", "result": "> 100", "unit": "µM"},
      {"measurement": "TGI", "setting": "[16]", "result": "> 100", "unit": "µM"},
      {"measurement": "TGI", "setting": "[17]", "result": "> 100", "unit": "µM"},
      {"measurement": "TGI", "setting": "[18]", "result": "> 100", "unit": "µM"},
      {"measurement": "TGI", "setting": "[19]", "result": "> 100", "unit": "µM"},
      {"measurement": "TGI", "setting": "[20]", "result": "> 100", "unit": "µM"}
    ]}
  ]
}
